{
  "source": "paper PMC12656546",
  "about": "“Enterohepatic Recirculation-Mediated Reabsorption of Aristolochic Acid I: Revealed by Toxicokinetics and Metabolite Identification in Rats” (Toxics, 2025)",
  "key": {"[1]": {"experiment": "Toxicokinetic study of AAI after single oral administration (plasma, UPLC-QQQ-MS/MS, NCA)", "format": "in vivo, F344 rats", "details": "for t1/2 / tmax / AUC0→t / CL/F / Cmax / Vd: individual pooled profiles (animal pairs), Table S4", "protocol": "For toxicokinetic study, forty-eight […] F344 rats (specific pathogen-free grade) were enrolled in the study, with equal numbers of males and females. All rats were purchased from Charles River Laboratory (Raleigh, NC, USA). All rats were confirmed to be healthy based on a series of physical health examinations. Rats were acclimated for 5 days at a temperature of 20–26 °C, humidity of 40–70% and a 12 h light/dark circle. The rats were randomly divided into four groups (n = 12 per group), with equal numbers of males and females in each group. The allocation was performed separately for each sex (female and male) based on body weight using a stratified randomization method. During the experiment, rats were fasted and had access to water ad libitum. To minimize confounding factors, treatments and measurements were randomized within each session. Cages from different groups were evenly distributed across racks in the same room to reduce bias from light and temperature. This study was approved by the Institutional Animal Care and Use Committee (IACUC) of the National Drug Safety Evaluation Center (Approval No. IACUC-2024-K011, 20 September 2024).\nDuring the experiment, each rat received a single oral administration via gastric gavage. Rats in the control group were administered with 0.5% sodium carboxymethyl cellulose (CMC-Na) suspension. For the treatment groups, rats were administered with gavage solution containing 10, 30 and 100 mg/kg of AAI. The gavage solution was prepared by uniformly dispersing the reference standard of AAI in the 0.5% CMC-Na solution. After oral administration, blood samples were collected from the postorbital vein plex of rats and immediately placed in EDTA tubes. To capture potential reabsorption which might occur long after AAI administration, 15 blood sampling time points were established for each dose group. A sparse sampling approach was employed to avoid excessive blood loss in each rat. For each dosage, 12 rats were subdivided into two groups. For the first group, blood samples were collected from 6 rats at 10, 30, 60, 90, 120, 240, 420, and 600 min after AAI administration; for the second group, blood samples were collected from these 6 rats at 12, 14, 16, 18, 20, 22, and 24 h after AAI administration. Therefore, the experimental design ensured that six biological replicates were obtained for each sampling time point, enabling robust toxicokinetic analysis.\nRat plasma samples were prepared as follows: Blood was centrifuged at 13,200 rpm for 10 min. Then, 25 μL of retrieved plasma was transferred to 2 mL centrifuge tubes, followed by the addition of 75 μL of methanol/acetonitrile solution (v/v, 1∶1) containing indomethacin as internal standard (IS). After vortexing for 2 min and centrifugation for 10 min at 13,200 rpm, the supernatant was used as study samples for quantitative analysis. Quality control samples (QCs) and calibration standards were prepared by spiking blank plasma with different concentrations of AAI standard solution. The QCs and calibration standards were processed using identical procedures as the study samples.\nA method of ultra-performance liquid chromatography coupled with triple quadrupole tandem mass spectrometry (UPLC-QQQ-MS/MS) was developed to achieve the quantitation of AAI in rat plasma. The LC-MS/MS analysis was performed using an Acquity UPLC I-Class system coupled with an Xevo TQ XS spectrometer (Waters, Milford, MA, USA). An Acquity UPLC BEH C18 column (2.1 mm × 50 mm, 1.7 μm, Waters, Milford, MA, USA) was employed for chromatographic separation. The mobile phases consisted of water containing 5 mmol/L ammonium formate/0.1% formic acid (A) and acetonitrile (B). The gradient elution was set as follows: 1–4 min, 10–90% B; 4–5 min, 90% B; 5–5.01 min, 90–10% B; 5.01–7 min, 10% B. The flow rate was set at 0.4 mL/min. The column temperature was maintained at 40 °C. A sample volume of 2 μL was injected for analysis. […]"}, "[2]": {"details": "nine months after a single administration of AAI, cited from earlier work"}, "[3]": {"details": "high-dose (100 mg/kg), 100 mg/kg"}, "[4]": {"details": "medium-dose (30 mg/kg), 30 mg/kg"}, "[5]": {"details": "oral dose from 30 mg/kg to 100 mg/kg (3.33-fold)"}},
  "note": "“And” between values parts separate entries of the source, which are not always exact repeats. Equal values may be shown once. Read-outs that look alike come from different tables or passages of the source.",
  "data": [
    {"smiles": "COc1cccc2c1cc([N+](=O)[O-])c1c(C(=O)O)cc3c(c12)OCO3", "note": "[AAI, Aristolochic acid I]", "values": [
      {"measurement": "t1/2", "setting": "[1]; [3]", "value": "20.86 h and 3.11 h and 2.58 h and 3.83 h and 2.80 h and 2.72 h"},
      {"measurement": "tmax", "setting": "[1]; [3]", "value": 1.00, "unit": "h"},
      {"measurement": "sex-dependent difference in systemic exposure", "setting": "[1]; high-dose and medium-dose groups, female vs male rats", "value": "female rats exhibited higher systemic exposure compared to males"},
      {"measurement": "AAI plasma concentration", "setting": "[1]; low-dose (10 mg/kg oral), 18 h, individual rats M104,M105,M106,F104,F105,F106, below LLOQ set to zero", "value": 0.00, "unit": "ng/mL"},
      {"measurement": "AAI plasma concentration", "setting": "[1]; low-dose (10 mg/kg oral), 20 h, individual rats M104,M105,M106,F104,F105,F106, below LLOQ set to zero", "value": 0.00, "unit": "ng/mL"},
      {"measurement": "AAI plasma concentration", "setting": "[1]; low-dose (10 mg/kg oral), 22 h, individual rats M104,M105,M106,F104,F105,F106, below LLOQ set to zero", "value": 0.00, "unit": "ng/mL"},
      {"measurement": "AAI plasma concentration", "setting": "[1]; low-dose (10 mg/kg oral), 24 h, individual rats M104,M105,M106,F104,F105,F106, below LLOQ set to zero", "value": 0.00, "unit": "ng/mL"},
      {"measurement": "AUC0→t", "setting": "[1]; low-dose (10 mg/kg), 10 mg/kg", "value": "1221.57 ng·h/mL and 1055.94 ng·h/mL and 876.13 ng·h/mL and 990.96 ng·h/mL"},
      {"measurement": "CL/F", "setting": "[1]; low-dose (10 mg/kg), 10 mg/kg", "value": "1.53 L/h and 1.06 L/h and 1.82 L/h and 1.98 L/h and 1.38 L/h and 2.17 L/h"},
      {"measurement": "Cmax", "setting": "[1]; low-dose (10 mg/kg), 10 mg/kg", "value": "361.73 ng/mL and 436.18 ng/mL and 640.11 ng/mL and 496.76 ng/mL and 247.55 ng/mL"},
      {"measurement": "Vd", "setting": "[1]; low-dose (10 mg/kg), 10 mg/kg", "value": "2.67 L and 1.53 L and 3.03 L and 4.74 L and 1.21 L and 6.96 L"},
      {"measurement": "t1/2", "setting": "[1]; low-dose (10 mg/kg), 10 mg/kg", "value": "1.00 h and 1.15 h and 1.66 h and 0.61 h and 1.21 h and 2.23 h"},
      {"measurement": "tmax", "setting": "[1]; low-dose (10 mg/kg), 10 mg/kg", "value": 0.17, "unit": "h"},
      {"measurement": "AAI plasma concentration", "setting": "[1]; medium-dose (30 mg/kg oral), 0.167 h, individual rats M201,M202,M203,F201,F202,F203, 30 mg/kg", "value": "677.97 ng/mL and 891.85 ng/mL and 775.45 ng/mL and 694.87 ng/mL and 747.04 ng/mL and 424.53 ng/mL"},
      {"measurement": "AAI plasma concentration", "setting": "[1]; medium-dose (30 mg/kg oral), 0.5 h, individual rats M201,M202,M203,F201,F202,F203, 30 mg/kg", "value": "2114.14 ng/mL and 2496.11 ng/mL and 2604.27 ng/mL and 3133.29 ng/mL and 2919.69 ng/mL and 1424.98 ng/mL"},
      {"measurement": "AAI plasma concentration", "setting": "[1]; medium-dose (30 mg/kg oral), 1 h, individual rats M201,M202,M203,F201,F202,F203, 30 mg/kg", "value": "1312.37 ng/mL and 2360.84 ng/mL and 2630.67 ng/mL and 814.02 ng/mL and 1128.36 ng/mL and 777.08 ng/mL"},
      {"measurement": "AAI plasma concentration", "setting": "[1]; medium-dose (30 mg/kg oral), 1.5 h, individual rats M201,M202,M203,F201,F202,F203, 30 mg/kg", "value": "508.51 ng/mL and 594.78 ng/mL and 649.03 ng/mL and 685.24 ng/mL and 712.70 ng/mL"},
      {"measurement": "AAI plasma concentration", "setting": "[1]; medium-dose (30 mg/kg oral), 2 h, individual rats M201,M202,M203,F201,F202,F203, 30 mg/kg", "value": "634.01 ng/mL and 354.12 ng/mL and 602.07 ng/mL and 438.37 ng/mL and 724.22 ng/mL and 539.10 ng/mL"},
      {"measurement": "AAI plasma concentration", "setting": "[1]; medium-dose (30 mg/kg oral), 4 h, individual rats M201,M202,M203,F201,F202,F203, 30 mg/kg", "value": "90.61 ng/mL and 161.84 ng/mL and 196.08 ng/mL and 93.85 ng/mL and 264.87 ng/mL and 468.11 ng/mL"},
      {"measurement": "AAI plasma concentration", "setting": "[1]; medium-dose (30 mg/kg oral), 7 h, individual rats M201,M202,M203,F201,F202,F203, 30 mg/kg", "value": "72.74 ng/mL and 83.75 ng/mL and 104.71 ng/mL and 69.29 ng/mL and 131.52 ng/mL and 64.74 ng/mL"},
      {"measurement": "AAI plasma concentration", "setting": "[1]; medium-dose (30 mg/kg oral), 10 h, individual rats M201,M202,M203,F201,F202,F203, 30 mg/kg", "value": "26.96 ng/mL and 52.18 ng/mL and 50.62 ng/mL and 70.78 ng/mL and 76.59 ng/mL and 58.20 ng/mL"},
      {"measurement": "AAI plasma concentration", "setting": "[1]; medium-dose (30 mg/kg oral), 12 h, individual rats M204,M205,M206,F204,F205,F206, 30 mg/kg", "value": "1.92 ng/mL and 6.45 ng/mL and 1.24 ng/mL and 2.81 ng/mL and 3.93 ng/mL and 3.49 ng/mL"},
      {"measurement": "AAI plasma concentration", "setting": "[1]; medium-dose (30 mg/kg oral), 14 h, individual rats M204,M205,M206,F204,F205,F206, 30 mg/kg", "value": "2.74 ng/mL and 3.87 ng/mL and 2.17 ng/mL and 2.87 ng/mL"},
      {"measurement": "AAI plasma concentration", "setting": "[1]; medium-dose (30 mg/kg oral), 16 h, individual rats M204,M205,M206,F204,F205,F206, 30 mg/kg", "value": "0.61 ng/mL and 2.32 ng/mL and 0.38 ng/mL and 4.36 ng/mL and 5.23 ng/mL and 10.35 ng/mL"},
      {"measurement": "AAI plasma concentration", "setting": "[1]; medium-dose (30 mg/kg oral), 18 h, individual rats M204,M205,M206,F204,F205,F206, 30 mg/kg", "value": "0.83 ng/mL and 5.49 ng/mL and 0.29 ng/mL and 6.28 ng/mL and 4.31 ng/mL and 13.62 ng/mL"},
      {"measurement": "AAI plasma concentration", "setting": "[1]; medium-dose (30 mg/kg oral), 20 h, individual rats M204,M205,M206,F204,F205,F206, 30 mg/kg", "value": "0.91 ng/mL and 3.14 ng/mL and 0.30 ng/mL and 7.63 ng/mL and 13.88 ng/mL and 9.00 ng/mL"},
      {"measurement": "AAI plasma concentration", "setting": "[1]; medium-dose (30 mg/kg oral), 22 h, individual rats M204,M205,M206,F204,F205,F206, 30 mg/kg", "value": "0.40 ng/mL and 4.38 ng/mL and 0.15 ng/mL and 6.11 ng/mL and 48.38 ng/mL and 35.23 ng/mL"},
      {"measurement": "AAI plasma concentration", "setting": "[1]; medium-dose (30 mg/kg oral), 24 h, individual rats M204,M205,M206,F204,F205,F206, 30 mg/kg", "value": "0.23 ng/mL and 8.71 ng/mL"},
      {"measurement": "AUC0→t", "setting": "[1]; [4]", "value": "4703.09 ng·h/mL and 3783.95 ng·h/mL and 3228.59 ng·h/mL and 3983.95 ng·h/mL and 4581.00 ng·h/mL"},
      {"measurement": "CL/F", "setting": "[1]; [4]", "value": "1.18 L/h and 0.80 L/h and 1.03 L/h and 1.79 L/h and 1.32 L/h and 1.20 L/h"},
      {"measurement": "Cmax", "setting": "[1]; [4]", "value": "2919.69 ng/mL and 1424.98 ng/mL and 2114.14 ng/mL and 2496.11 ng/mL and 2630.67 ng/mL and 3133.29 ng/mL"},
      {"measurement": "Vd", "setting": "[1]; [4]", "value": "5.23 L and 4.46 L and 4.94 L and 5.21 L (2×) and 2.97 L"},
      {"measurement": "t1/2", "setting": "[1]; [4]", "value": "3.85 h and 3.33 h and 2.02 h and 2.73 h and 1.71 h and 3.08 h"},
      {"measurement": "tmax", "setting": "[1]; [4]", "value": 1.00, "unit": "h"},
      {"measurement": "fold increase in AUC0→t", "setting": "[1]; [5]", "value": 4.3, "unit": "fold"},
      {"measurement": "fold increase in Cmax", "setting": "[1]; [5]", "value": 3.7, "unit": "fold"},
      {"measurement": "mice developing liver cancer", "setting": "[2]; female mice", "value": 41.67, "unit": "%"},
      {"measurement": "mice developing liver cancer", "setting": "[2]; male mice", "value": 78.57, "unit": "%"}
    ]}
  ]
}
